In patent US10202349B2, “Asymmetric bis-acridines with antitumour activity and their uses” (POLITECHNIKA GDAŃSKA, priority 2015, dated 2019):

Experiments:
DU 145 = experiment: Anti-neoplasmic activity against xenograft in hairless mice; format: in vivo; details: series 2, i.p., single 8 mg/kg, total 48 mg/kg, day 35
Method: (§1) For this, we selected 26 bis-acridines, mainly on the basis of the cytotoxic activity. We performed 34 series of experiments evaluating the anti-neoplasmic activity on xenografts in hairless mice against eleven neoplasms of human origin from the determination of the cytotoxic activity of bis-acridines (table 4). The tumours were injected subcutaneously to hairless mice of 5-weeks, female Crl:Nu-Foxnlnu, at a rate of 5×10^6 cells per mouse. After attaining a tumour of about 100 mm^3 or 200 mm^3 in depending on the neoplasm and its take this was 8 or even 30 days, and began therapy. On the day therapy was initiated, we randomised the animals and divided them into groups. Test groups were from 6 to 8 animals, and controls had from 8 to 14 animals. Each compound was tested at three differentiated doses.
(§2) The preparations were administered intravenously (i.v.) twice weekly for 4 weeks (thrice weekly for rapidly growing neoplasms). In several series, we used intraperitoneally (i.p.) administration in the same scheme. […] The therapeutic efficacy of the tested formulations was evaluated by measuring tumour size (length and width measurements of the tumour on the basis of the calculated tumour volume). Tumours were measured twice weekly for a period of about 30 days for fast-growing neoplasms, as well as about 60 days for the slow-growing neoplasms. The tumour volume in the treated groups compared with the control group. On this basis, inhibition of tumour growth was calculated using the following formula: Tumour growth inhibition TGI [%]=100−(ΔVT/ΔVC×100) Where ΔVT—is mean the tumour volume in animals in the group treated at the given day of treatment, minus the mean tumour volume in animals at the date of commencement of therapy. ΔVC is mean tumour volume in animals in the control group on a given day of treatment minus the average tumour volume of animals on the date of commencement of therapy. The results of the tests of anti-neoplasmic activity conducted in xenografts of human-origin neoplasms in mice are shown in Table 5.
(§3) The result above was accepted only in the case that the dose administered in all animals or more than half of the animals that survived to the end of the experiment. In addition, the evaluation was the day that the administration of the preparation was already completed: for the fast-growing neoplasms (eg. HCT116) this was in the days from 15 to 26, while for slow-growing neoplasms (eg. Panc 1) on a day from 34 to 60. […] In addition, the maximum inhibition of neoplasms could be identified in the day, in which there were no factors that could change the value TGI value.
(§4) Such factors may include: a significant decrease in body weight, the appearance of observable toxaemia, excessive rate of tumour growth: tumours in excess of 2000 mm^3 and all animals alive on that day.

PANC 1 = experiment: as above; format: in vivo
Method: as §1, §2, §3, §4

H 460 = experiment: as above; format: in vivo; details: series 5, i.p., single 5 mg/kg, total 30 mg/kg, day 14
Method: as §1, §2, §3, §4

HCT-116 = experiment: Cytotoxic activity in vitro, SRB; format: cell-based, human
Method: (§5) Cytotoxic activity tests in-vitro. A measure of the cytotoxic activity of bis-acridines are the EC50 (concentration of studied compounds at which 50% inhibition of proliferation of tumorous is observed) of the evaluated compounds that inhibit the growth of 50% of cells in relation to a control. The cytotoxic activity of the compounds was determined using SRB, recommended by the US National Cancer Institute (USA). As the spectrum of 13 human origin neoplasms in bis-acridine screening studies, we used the following: HT 29 [CRC], HCT 116 [CRC], H 460 [lung cancer], MDA MB 231 [breast cancer], MCF-7 [breast cancer], UM UC3 [bladder cancer], PC 3 [prostate cancer], DU 145 [ prostate cancer], Panc-1 [pancreatic cancer], Mia Pa Ca 2 [pancreatic cancer], BXPC 3 [pancreatic cancer], AsPC1 [pancreatic cancer], Capan-2 [pancreatic cancer]. […] The DU-145 results were substantially a basis for selecting compounds and neoplasms for screening. The next neoplasms most sensitive to the cytotoxic activity of bis-acridines was the CRC HCT-116, as well as breast cancer MBA-MB-231. […] The cytotoxic activity of the remaining bis-acridines is significant or high (EC50 in the range from 1 to 0.04 μM). […] Panc-1, MiaPaCa-2 and Capan-2 are more sensitive, whereas for AsPC-1 and BxPC-3 this activity is at least an order of magnitude smaller.

HT-29 = experiment: Cytotoxic activity in vitro, SRB; format: cell-based, human
Method: as §5

MiaPaCa-2 = experiment: Cytotoxic activity in vitro, SRB; format: cell-based, human
Method: as §5

MDA-MB-231 = experiment: Cytotoxic activity in vitro, SRB; format: cell-based, human
Method: as §5

DU-145 = experiment: Cytotoxic activity in vitro, SRB; format: cell-based, human
Method: as §5

H-460 = experiment: Cytotoxic activity in vitro, SRB; format: cell-based, human
Method: as §5

HCT 116 = experiment: Anti-neoplasmic activity against xenograft in hairless mice; format: in vivo; details: series 8, i.p., day 23
Method: as §1, §2, §3, §4

PANC-1 = experiment: Cytotoxic activity in vitro, SRB; format: cell-based, human
Method: as §5

UM-UC-3 = experiment: Cytotoxic activity in vitro, SRB; format: cell-based, human
Method: as §5

MCF-7 = experiment: Cytotoxic activity in vitro, SRB; format: cell-based, human
Method: as §5

PC-3 = experiment: Cytotoxic activity in vitro, SRB; format: cell-based, human
Method: as §5

Capan-2 = experiment: Cytotoxic activity in vitro, SRB; format: cell-based, human
Method: as §5

AsPC-1 = experiment: Cytotoxic activity in vitro, SRB; format: cell-based, human
Method: as §5

BxPC-3 = experiment: Cytotoxic activity in vitro, SRB; format: cell-based, human
Method: as §5

Mia Pa Ca 2 = experiment: Anti-neoplasmic activity against xenograft in hairless mice; format: in vivo; details: series 28, i.v., single 5 mg/kg, total 28 mg/kg, day 33
Method: as §1, §2, §3, §4

BXPC 3 = experiment: as above; format: in vivo; details: series 25, i.p., single 10 mg/kg, total 80 mg/kg, day 32
Method: as §1, §2, §3, §4

| SMILES | EC50 (HCT-116) [µM] | EC50 (HT-29) [µM] | EC50 (MiaPaCa-2) [µM] | EC50 (MDA-MB-231) [µM] | EC50 (DU-145) [µM] | EC50 (H-460) [µM] | EC50 (PANC-1) [µM] | EC50 (UM-UC-3) [µM] | EC50 (MCF-7) [µM] | EC50 (Capan-2) [µM] | EC50 (AsPC-1) [µM] | EC50 (BxPC-3) [µM] | other results |
| --- | --- | --- | --- | --- | --- | --- | --- | --- | --- | --- | --- | --- | --- |
| Cc1ccc([N+](=O)[O-])c2c(NCCCN3CCN(CCCNc4ccc(C)c5[nH]c6ccccc6c(=O)c45)CC3)c3ccccc3nc12 [C-2017, 1-[3-(4-methyl-9(10H)-acridono-1-yl)aminopropyl]-1-[3′-(4′-methyl-1′-nitroacridin-1-yl)-aminopropyl]piperazine] | 0.047 | 0.061 | 0.067 | 0.048 | 0.046 | 0.04 | – | – | – | – | – | – | TGI [%] [100 − (ΔVT/ΔVC × 100] (DU 145): 25%; TGI [%] [100 − (ΔVT/ΔVC × 100] (PANC 1; series 31, i.v., single 15 mg/kg, total 120 mg/kg, day 51): 75%; TGI [%] [100 − (ΔVT/ΔVC × 100] (H 460): 6% |
| Cc1ccc([N+](=O)[O-])c2c(NCCCN(C)CCCNc3ccc([N+](=O)[O-])c4[nH]c5ccccc5c(=O)c34)c3ccccc3nc12 [C-2029, 9-{N-[(4-nitro-9(10H)acridono-1-yl)aminopropyl]-N-methylaminopropylamino}-4′-methyl-1′-nitroacridine] | 0.074 | 0.23 | – | – | 0.044 | 0.055 | 0.11 | 0.054 | – | – | – | – | TGI [%] [100 − (ΔVT/ΔVC × 100] (HCT 116; single 20 mg/kg, total 100 mg/kg): 52% |
| O=c1c2ccccc2[nH]c2c([N+](=O)[O-])ccc(NCCNCCNCCNc3c4ccccc4nc4cccc([N+](=O)[O-])c34)c12 [C-2033, 9-[N-(4-nitro-9(10H)acridono-1-yl)-aminoethylaminoethylamino-ethylamino]-1′-nitroacridine] | 0.019 | – | 0.048 | 0.032 | 0.01 | – | 0.038 | 0.015 | 0.072 | – | – | – | TGI [%] [100 − (ΔVT/ΔVC × 100] (HCT 116; single 3 mg/kg, total 21 mg/kg): 37%; EC50 (PC-3): 0.032 µM |
| O=c1c2ccccc2n2cnc3ccc(NCCNCCNCCNc4c5ccccc5nc5cccc([N+](=O)[O-])c45)c1c32 [C-2037] | 0.102 | – | 0.064 | 0.027 | 0.04 | – | 0.037 | – | 0.082 | 0.044 | 0.086 | 0.138 | TGI [%] [100 − (ΔVT/ΔVC × 100] (PANC 1; series 17, i.v., single 4 mg/kg, total 16 mg/kg, day 39): 60% |
| CN(CCCNc1c2ccccc2nc2cccc([N+](=O)[O-])c12)CCCNc1ccc2ncn3c4ccc(O)cc4c(=O)c1c23 [C-2042, 9-{N-[(8-hydroxyimidazo[4,5,1-de]-acridin-6-on-5-yl)aminopropyl]-N-methylaminopropylamino}-1′-nitroacridine] | 0.018 | – | 0.047 | 0.018 | 0.021 | – | 0.055 | – | 0.049 | 0.029 | 0.082 | 0.081 | TGI [%] [100 − (ΔVT/ΔVC × 100] (PANC 1; series 17, i.v., single 4 mg/kg, total 20 mg/kg, day 39, *at least half of animals did not survive): 33* % |
| Cc1ccc([N+](=O)[O-])c2c(NCCCN(C)CCCNc3ccc4ncn5c6ccc(O)cc6c(=O)c3c45)c3ccccc3nc12 [C-2045, 9-{N-[(8-hydroxyimidazo[4,5,1-de]-acridin-6-on-5-yl)aminopropyl]-N-methylaminopropylamino}-4′-methyl-1′-nitroacridine] | 0.04 | – | 0.059 | 0.052 | 0.059 | – | 0.216 | – | – | 0.052 | 0.152 | 0.169 | TGI [%] [100 − (ΔVT/ΔVC × 100] (Mia Pa Ca 2): 55%; TGI [%] [100 − (ΔVT/ΔVC × 100] (PANC 1; series 20, i.v., single 10 mg/kg, total 40 mg/kg, day 32): 67%; TGI [%] [100 − (ΔVT/ΔVC × 100] (PANC 1; series 24, i.v., single 2 mg/kg, total 16 mg/kg, day 44): 82%; TGI [%] [100 − (ΔVT/ΔVC × 100] (PANC 1; series 26, i.v., single 10 mg/kg, total 80 mg/kg, day 56): 64%; TGI [%] [100 − (ΔVT/ΔVC × 100] (PANC 1; series 29, i.v., single 5 mg/kg, total 25 mg/kg, day 36): 25%; TGI [%] [100 − (ΔVT/ΔVC × 100] (BXPC 3): 77% |
